From publication PMC5381194, “On-chip in vitro cell-network pre-clinical cardiac toxicity using spatiotemporal human cardiomyocyte measurement on a chip” (Scientific Reports, 2014)
Like-named read-outs stand apart in the source and are kept apart here.

Tests used:
[1] = design: method as in references and pharmaceutical attachments; details: clinical report; effective therapeutic plasma concentration; ref references and pharmaceutical attachments; cited from earlier work
[2] = test system: human embryonic stem cell-derived cardiomyocyte cluster (hES-CMC); details: for Arrest (%) / Fib-like (%): human, 10 min
hERG = hERG (Homo sapiens, UniProt Q12809); experiment: hERG assay: K+ current by patch clamp in hERG expressing CHO-K1 cells; details: pH 7.4
Procedure: Supplementary Explanation of Methods [in online]
Measurement of potassium (K+) current by patch clamp in hERG expressing CHO-K1 cells A patch clamp glass electrode was filled with internal solution (KCl: 130 mM, MgCl2: 1 mM, EGTA: 5 mM, MgATP: 5 mM, HEPES: 10 mM, pH 7.20). The electrode was attached to a patch clamp headstage holder and the tip of the electrode was brought into contact with the cell membrane with a micromanipulator under the microscope. Slight negative pressure from suction was created inside the electrode and the patch clamp system AXOPATCH 200B (Axon Instruments) and Clampex 9.2 was used to obtain a measured membrane resistance value (R-memb) greater than 20 megohms. The resting membrane potential was set at -80 mV just to wait to obtain R-memb greater than 1 gigaohms. Then to make whole-cell clamp mode, a strong suction was applied to rupture the cell membrane under the electrode. Cell capacitance and series resistance were compensated. The stimulation protocol (holding potential: -80 mV, depolarization pulse: +50 mV, for 2 s, repolarization pulse: -40 mV, for 2 s, pulse frequency:
0.067 Hz) was applied and the corresponding current was recorded. After the current waveform became stable, the application solutions were added cumulatively from the lowest concentration.
The cells were exposed to each concentration for 5 minutes and washed with Tyrode solution […]
pH 7.40) to observe the recovery after the exposure to the highest concentration. All experiments (n=3) were carried out at room temperature. The cells were perfused with Tyrode solution at the rate of 2.5 ml/min through the experiment as the background flow. The test compound was added to the cells directly via a pipette set nearby the cells at the rate of 350-400 µl/min.
Percentage change from pre-application values in tail peak current (% inhibition) was calculated […]
application/average of the consecutive 4 currents just before the start of the first application (the lowest one)] × 100. The dose levels were selected to describe the dose response curve. The maximum concentration was set to at least approximately 30~100 times its effective therapeutic plasma concentration in consideration of the solubility. […]

[3] = test system: human embryonic stem cell-derived cardiomyocyte cluster (hES-CMC); experiment: On-chip MEA field potential recording of hCM clusters (temporal FPD and STVFPD); details: for Score (On-chip MEA system, VT/TdP risk): more than 1.9-fold of STVFPD is the border of high risk of VT/TdP; for FPD (ratio) / STVFPD (ratio): 10 μM (Ref. dose ca. 10^2 × CMAX), ratio against the control, mean ± S.E.
[4] = clinical VT/TdP risk compiled from the literature; ref literature; cited from earlier work
[5] = test system: isolated Langendorff-perfused female rabbit heart; experiment: MAPD measurement in isolated Langendorff-perfused female rabbit heart; details: relative ratio against the control, mean
Excerpt: (§1) megohms, which was coupled to an Ag-AgCl bath electrode and connected to a microelectrode […]
(§2) amplifier (MEZ-8300, Nihon Koden). […]
(§3) computer system (WinCAPA1.6.6.Aui, Physio-Tech). The components of the action potential analyzed by the computer system are: resting membrane potential (RMP), action potential amplitude (APA), overshoot (OS), action potential duration at 30%, 50% and 90% of repolarization (APD30, APD50 and APD90, respectively) and maximum rate of rising phase (V max = dV/dt max). After an equilibration period for at least one hour, the test compound was added to the organ bath at increasing cumulative concentrations. The administration volume and rate was 20, 40, 140 µl/20 ml organ bath and 1 s/dose. Cardiac action potentials were recorded before and 30 minutes after the exposure of the test compound at each concentration.
The dose levels were selected to describe the dose response curve.
(§4) Monophasic action potential duration (MAPD) measurements in isolated Langendorff-perfused female rabbit heart
(§5) Female NZW rabbit were anesthetized by an intravenous injection of thiopental (30 mg/kg) and heparin (500 U/kg). Then the heart was quickly removed and its aorta was cannulated, the bundle of His was sectioned, for perfusion of the coronary artery according to the Langendorff method with constant pressure (initial perfusion pressure: 60-70 mmHg). The heart was perfused at […]

[6] = test system: guinea pig right ventricular papillary muscle; experiment: APD assay: action potential recording in guinea pig right ventricular papillary muscle; details: relative ratio against the control, mean
Procedure: After the current waveform
(n=3) were carried out at room temperature. The cells were perfused with Tyrode solution at the […]
lowest one)] × 100. […] The […]
plasma concentration in consideration of the solubility. […]
as §1, §2, §3, §4, §5
KCl: 4.7 mM, CaCl2: 2.5 mM, MgSO4: 1.2 mM, KH2PO4: 1.2 mM, NaHCO3: 25 mM, glucose:
Two electrocardiogram (ECG) […]
electrodes were held lightly against the epicardium, the positive one on the left ventricle, the […]

[7] = hCM clusters, 10 μM, ratio of lethally abnormal events

Sequence of hERG (Q12809 whole entry): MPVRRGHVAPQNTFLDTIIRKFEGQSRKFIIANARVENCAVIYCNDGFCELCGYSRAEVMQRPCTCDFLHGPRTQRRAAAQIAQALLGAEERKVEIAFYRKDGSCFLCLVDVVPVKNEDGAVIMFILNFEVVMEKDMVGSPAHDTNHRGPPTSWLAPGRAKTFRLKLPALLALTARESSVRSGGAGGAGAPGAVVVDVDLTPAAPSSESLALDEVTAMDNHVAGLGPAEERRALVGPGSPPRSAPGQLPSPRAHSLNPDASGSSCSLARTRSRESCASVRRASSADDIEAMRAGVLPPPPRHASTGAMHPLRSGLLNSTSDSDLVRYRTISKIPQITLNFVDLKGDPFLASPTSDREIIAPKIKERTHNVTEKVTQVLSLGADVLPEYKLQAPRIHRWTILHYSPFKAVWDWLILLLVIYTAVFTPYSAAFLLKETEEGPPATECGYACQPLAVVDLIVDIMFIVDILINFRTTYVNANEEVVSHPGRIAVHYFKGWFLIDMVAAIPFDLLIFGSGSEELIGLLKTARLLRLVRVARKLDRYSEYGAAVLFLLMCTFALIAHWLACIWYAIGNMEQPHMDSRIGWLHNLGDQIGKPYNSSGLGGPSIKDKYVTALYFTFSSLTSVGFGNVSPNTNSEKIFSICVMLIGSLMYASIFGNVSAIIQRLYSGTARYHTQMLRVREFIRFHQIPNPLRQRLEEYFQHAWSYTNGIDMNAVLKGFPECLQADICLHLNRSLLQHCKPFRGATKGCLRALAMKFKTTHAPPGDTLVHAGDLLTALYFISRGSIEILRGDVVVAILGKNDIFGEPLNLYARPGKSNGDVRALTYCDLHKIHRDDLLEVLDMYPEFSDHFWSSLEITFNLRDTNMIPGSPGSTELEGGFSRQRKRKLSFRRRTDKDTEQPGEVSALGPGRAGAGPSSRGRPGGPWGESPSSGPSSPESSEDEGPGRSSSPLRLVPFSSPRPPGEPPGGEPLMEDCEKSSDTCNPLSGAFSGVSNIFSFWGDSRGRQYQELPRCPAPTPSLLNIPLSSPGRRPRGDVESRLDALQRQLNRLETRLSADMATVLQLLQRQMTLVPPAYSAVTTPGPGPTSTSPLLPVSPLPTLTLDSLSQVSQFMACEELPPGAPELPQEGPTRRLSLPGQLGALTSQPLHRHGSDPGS

Score (On-chip MEA system, VT/TdP risk) [3] | Structure (SMILES) | Cmax [1] [nM] | VT/VF/TdP (Clinical report) [4] | Arrest (%) ([2]; 10 µM) | Fib-like (%) ([2]; 10 µM) | further results
 | CC(C)NCC(O)c1ccc(NS(C)(=O)=O)cc1 (racemic) [DL-sotalol] | 2500 |  |  |  | Score (On-chip MEA system, VT/TdP risk) [2]: High; Arrest (%) ([2]; 1000 µM): 5%; Fib-like (%) ([2]; 1000 µM): 0%; inhibition at 5 min, 30 µM (hERG; CHO-K1 cells expressing hERG): 19.2%
High | COc1ccc(CCN2CCC(Nc3nc4ccccc4n3Cc3ccc(F)cc3)CC2)cc1 [Astemizole] | 2 | (+) |  |  | Arrest (%) ([2]; 0.1 µM): 0%; Fib-like (%) ([2]; 0.1 µM): 14%
High | CC(C)COCC(CN(Cc1ccccc1)c1ccccc1)N1CCCC1 (centres unmarked) [Bepridil] | 300 | (+) | 5 | 5 | MAPD90 prolongation in Langendorff hearts (ratio) ([5]; 10 μM): 1.12 ratio; inhibition at 5 min, 0.3 µM (hERG; CHO-K1 cells expressing hERG): 61.9%; FPD (ratio) ([3]; hCM clusters): 1.21 ± 0.12 ratio; STVFPD (ratio) ([3]; hCM clusters): 4.74 ± 2.26 ratio; APD90 prolongation in papillary musole (ratio) ([6]; 10 μM): 1.02 ratio
Low | COc1ccc([C@@H]2Sc3ccccc3N(CCN(C)C)C(=O)[C@@H]2OC(C)=O)cc1 [Diltiazem] | 110 |  |  |  | Arrest (%) ([2]; 1 µM): 50%; Fib-like (%) ([2]; 1 µM): 0%
Low | CC(C)(C)c1ccc(C(=O)CCCN2CCC(OC(c3ccccc3)c3ccccc3)CC2)cc1 [Ebastine] | 160 |  |  |  | Arrest (%) ([2]; 1 µM): 0%; Fib-like (%) ([2]; 1 µM): 0%
High | O=C(NCC1CCCCN1)c1cc(OCC(F)(F)F)ccc1OCC(F)(F)F (centres unmarked) [Flecainide] | 430 |  |  |  | Arrest (%) ([2]; 100 µM): 13%; Fib-like (%) ([2]; 100 µM): 0%; inhibition at 5 min, 10 µM (hERG; CHO-K1 cells expressing hERG): 88.3%
Low | C[C@H]1COc2c(N3CCN(C)CC3)c(F)cc3c(=O)c(C(=O)O)cn1c23 [Levofloxacin] | 22000 |  |  |  | Arrest (%) ([2]; 1000 µM): 40%; Fib-like (%) ([2]; 1000 µM): 4%; inhibition at 5 min, 300 µM (hERG; CHO-K1 cells expressing hERG): 13.2%
 | COc1c(N2C[C@@H]3CCCN[C@@H]3C2)c(F)cc2c(=O)c(C(=O)O)cn(C3CC3)c12 [Moxifloxacin] | 10000 |  |  |  | Arrest (%) ([2]; 100 µM): 0%; Fib-like (%) ([2]; 100 µM): 0%
High | CSc1ccc2c(c1)N(CCC1CCCCN1C)c1ccccc1S2 (centres unmarked) [Thioridazine] | 1800 | (+) | 0 | 0 | 

Structure (SMILES) | Score (On-chip MEA system, VT/TdP risk) [3] | Cmax [1] [nM] | VT/VF/TdP (Clinical report) [4] | Arrest (%) ([2]; 10 µM) | Fib-like (%) ([2]; 10 µM) | further results
COc1cc(N)c(Cl)cc1C(=O)NC1CCN(CCCOc2ccc(F)cc2)CC1OC (centres unmarked) [Cisapride] | High | 180 | (+) | 0 | 4 | MAPD90 prolongation in Langendorff hearts (ratio) ([5]; 1 μM): 1.37 ratio; inhibition at 5 min, 1 µM (hERG; CHO-K1 cells expressing hERG): 90.6%; FPD (ratio) ([3]; hCM clusters): 1.37 ± 0.07 ratio; STVFPD (ratio) ([3]; hCM clusters): 3.82 ± 0.85 ratio; APD90 prolongation in papillary musole (ratio) ([6]; 1 μM): 1.14 ratio
CN(C)CCCC1(c2ccc(F)cc2)OCc2cc(C#N)ccc21 (centres unmarked) [Citalopram] | High | 270 | (+) | 12 | 0 | inhibition at 10 µM (hERG): 83.5%; FPD (ratio) ([3]; hCM clusters): 0.86 ± 0.04 ratio; STVFPD (ratio) ([3]; hCM clusters): 2.75 ± 0.78 ratio; APD90 prolongation in papillary musole (ratio) ([6]; 10 μM): 0.95 ratio
NC(N)=Nc1nc(CSCCC(N)=NS(N)(=O)=O)cs1 [Famotidine] | Low | 190 |  | 0 | 0 | 
Fc1ccc([C@@H]2CCNC[C@H]2COc2ccc3c(c2)OCO3)cc1 [Paroxetin] | High | 70 |  |  |  | FPD (ratio) ([3]; hCM clusters): 1.30 ± 0.06 ratio; STVFPD (ratio) ([3]; hCM clusters): 2.27 ± 0.41 ratio; Arrest (%) [3, 7]: 13%; Fib-like (%) [3, 7]: 0%
CC(C)(C)c1ccc(C(O)CCCN2CCC(C(O)(c3ccccc3)c3ccccc3)CC2)cc1 (centres unmarked) [Terfenadine] | High | 220 | (+) | 21 | 3 | STVFPD in hCM clusters, long-term observation ([3]; 0.3 μM, even at 72 h): no significant increase; time at which FPD reached the risk level ([3]; 0.3 μM, hCM clusters, long-term observation): 24 h; FPD in hCM clusters, long-term observation ([3]; 0.3 μM, observed 8 h after application): gradual increase
